Test results from ChEMBL document CHEMBL1133166, “Cyclin-dependent kinase inhibitors: useful targets in cell cycle regulation” (J Med Chem, 2000).
Active and inactive are the calls of the source. The rule behind the calls is not given here.

Legend:
[1] = target: Cyclin-dependent kinase 2/cyclin E (Homo sapiens) (UniProt P24864+P24941+O96020); settings: Asteroidea
Description: Inhibition of Cyclin-dependent kinase 2-cyclin E

[2] = target: Cyclin-dependent kinase 1/cyclin B (Homo sapiens) (UniProt P06493+P14635+Q8WWL7+O95067); settings: Asteroidea
Description: Inhibition of Cyclin-dependent kinase 1-cyclin B

[3] = target: Cyclin-dependent kinase 2/cyclin A (Homo sapiens) (UniProt P24941+P20248+P78396); test: Inhibition of Cyclin-dependent kinase 2-cyclin A; type: protein-complex assay
[4] = target: T1, Cyclin-dependent kinase 4/cyclin D (Homo sapiens) (UniProt P11802+P24385+P30281+P30279); test: Inhibition of Cyclin-dependent kinase 4-cyclin D; type: protein-complex assay
T1 sequence (P11802 whole entry, looked up): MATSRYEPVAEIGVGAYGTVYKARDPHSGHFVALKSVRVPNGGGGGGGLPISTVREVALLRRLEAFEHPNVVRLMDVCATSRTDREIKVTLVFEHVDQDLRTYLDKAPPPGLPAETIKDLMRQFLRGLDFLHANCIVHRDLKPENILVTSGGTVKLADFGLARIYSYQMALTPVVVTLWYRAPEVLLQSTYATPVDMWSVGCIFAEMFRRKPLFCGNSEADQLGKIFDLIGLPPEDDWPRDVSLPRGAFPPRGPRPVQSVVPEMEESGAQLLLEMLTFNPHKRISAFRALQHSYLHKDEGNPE
T1 sequence (P24385 whole entry, looked up): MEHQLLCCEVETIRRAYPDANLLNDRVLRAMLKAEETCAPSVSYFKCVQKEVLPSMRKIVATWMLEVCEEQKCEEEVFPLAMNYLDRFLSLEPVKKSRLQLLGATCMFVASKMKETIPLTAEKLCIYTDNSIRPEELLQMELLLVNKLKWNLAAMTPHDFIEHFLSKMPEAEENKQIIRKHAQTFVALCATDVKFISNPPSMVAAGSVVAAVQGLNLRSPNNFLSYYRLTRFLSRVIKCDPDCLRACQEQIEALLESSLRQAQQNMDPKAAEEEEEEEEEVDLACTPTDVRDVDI
T1 sequence (P30279 whole entry, looked up): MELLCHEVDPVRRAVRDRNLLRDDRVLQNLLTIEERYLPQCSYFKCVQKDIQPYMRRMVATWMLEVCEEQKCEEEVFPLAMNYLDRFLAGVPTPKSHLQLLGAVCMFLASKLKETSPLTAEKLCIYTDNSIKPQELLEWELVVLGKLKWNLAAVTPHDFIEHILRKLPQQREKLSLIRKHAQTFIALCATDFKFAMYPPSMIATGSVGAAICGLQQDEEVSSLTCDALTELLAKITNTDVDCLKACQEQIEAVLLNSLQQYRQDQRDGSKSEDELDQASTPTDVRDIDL
T1 sequence (P30281 whole entry, looked up): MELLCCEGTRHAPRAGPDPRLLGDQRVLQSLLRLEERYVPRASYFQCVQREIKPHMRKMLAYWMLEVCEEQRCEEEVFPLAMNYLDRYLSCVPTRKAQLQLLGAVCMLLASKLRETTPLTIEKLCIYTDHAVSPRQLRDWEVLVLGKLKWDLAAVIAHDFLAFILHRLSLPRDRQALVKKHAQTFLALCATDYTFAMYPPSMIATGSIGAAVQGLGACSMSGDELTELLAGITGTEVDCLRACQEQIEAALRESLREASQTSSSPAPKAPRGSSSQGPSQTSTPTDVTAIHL

[5] = target: T1, Cyclin-dependent kinase 4/cyclin D (Homo sapiens); test: Inhibition of Cyclin-dependent kinase 4-cyclin D (Inactive); type: protein-complex assay; settings: Asteroidea

Structure (SMILES) | ID50 [1] | ID50 [2] | ID50 [3] | also measured
OCCCNc1cc(-c2ccnc(Nc3cccc(Cl)c3)n2)ccn1 | 50 nM | 20 nM | – | –
CC(C)[C@H](CO)Nc1nc(Nc2ccc(C(=O)O)c(Cl)c2)c2ncn(C(C)C)c2n1 | – | – | 6 nM | –
CC(C)n1c(=O)ccc2ncc(Nc3ccc(N4CCN(C)CC4)cc3)cc21 | 270 nM | 675 nM | 58 nM | ID50 [4]: 45 nM
Cn1cnc2c(NCc3ccccc3)nc(NCCO)nc21 | – | – | – | IA [5]: inactive
CCn1cnc2c(N)nc(N(c3cccc(Cl)c3)[C@@H]3CCCC[C@@H]3N)nc21 | 9 nM | 16 nM | – | ID50 [4]: 29 nM

The next lines start with results.

ID50 [1] | ID50 [2] | ID50 [3] | Structure (SMILES) | also measured
3.5 nM | – | – | CNS(=O)(=O)c1ccc(/N=N/c2c(O)[nH]c3ccc4ncsc4c23)cc1 | –
6.2 nM | – | – | CNS(=O)(=O)Cc1ccc(/N=N/c2c(O)[nH]c3ccc4ncccc4c23)cc1 | –
– | 35 nM | – | O=C1Cc2c([nH]c3ccc(Br)cc23)-c2ccccc2N1 | –
– | – | 100 nM | CN1CC[C@H](c2c(O)cc(O)c3c(=O)cc(-c4ccccc4Cl)oc23)[C@H](O)C1 | –
